Molecules are shown by their SMILES. A value given as a limit tells only on which side of the number the result lay.

For one test, the target named is T1, ULK1 kinase (Homo sapiens, UniProt O75385, E37A/K38A).
T1 construct: (residues 1-283; ID NO: 1); purchased Beryllium
T1 sequence (O75385 1-283 E37A/K38A): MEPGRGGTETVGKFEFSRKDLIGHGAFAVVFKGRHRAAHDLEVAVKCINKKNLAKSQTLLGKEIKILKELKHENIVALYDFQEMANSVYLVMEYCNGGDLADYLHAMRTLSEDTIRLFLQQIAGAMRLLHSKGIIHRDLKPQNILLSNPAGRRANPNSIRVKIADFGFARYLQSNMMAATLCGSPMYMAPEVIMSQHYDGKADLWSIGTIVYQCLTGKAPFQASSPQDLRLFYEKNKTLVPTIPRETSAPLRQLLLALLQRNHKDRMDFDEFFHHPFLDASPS
Briefly: Biochemical assay for ULK1 (coupled pyruvate kinase/lactate dehydrogenase assay). The following applies: 1 mM ATP, 0.1 nM ULK1; read-out: ULK1 (inhibition of biochemical activity), IC50. On the procedure:
Biochemical Assay for ULK1 (SEQ. ID NO: 1)
Activity of ULK1 kinase was determined spectroscopically using a coupled pyruvate kinase/lactate dehydrogenase assay that continuously monitors the ATP hydrolysis-dependent oxidation of NADH (e.g., Schindler et al. Science (2000) 289: 1938-1942). Assays were conducted in 384-well plates (100 μL final volume) using 0.1 nM ULK1 (from Beryllium), 0.075 mM peptide substrate (YANWLAASIYLDGKKK), 1.5 units pyruvate kinase, 2.1 units lactate dehydrogenase, 1 mM phosphoenol pyruvate, 0.28 mM NADH and 1 mM ATP in assay buffer (100 mM Tris, pH 7.5, 15 mM MgCl2, 0.5 mM DTT, 0.004% (w/v) BSA, and 0.004% Triton X-100). Inhibition of ULK1 was measured by adding serial diluted test compound (final assay concentration of 1% DMSO). A decrease in absorption at 340 nm was monitored continuously for 6 h at 30° C. on a multi-mode microplate reader (BioTek). The reaction rate was calculated using the 2-3 h time frame. The reaction rate at each concentration of compound was converted to percent inhibition using controls (i.e., reaction with no test compound and reaction with a known inhibitor) and IC50 values were calculated using software routines in Prism (GraphPad software).

In test [1] the test system is ULK kinase substrate ATG13 (pS318-ATG13) in A549 (KRAS mutant) cells. Put plainly: pATG13 levels of mutant KRas A549 cells after treatment with ULK inhibitors in combination with trametinib (ELISA). The format is cell-based, human. On the procedure:
Cellular Inhibition of ULK Kinase Substrate ATG13 Protein pATG13 Levels of Mutant KRas A549 Cells after Treatment with ULK Inhibitors in Combination with Trametinib
(§1) A549 (KRAS mutant) human lung cancer cells (6,000 cells/well) were added to a 384-well tissue-culture treated plate in 50 μL of pre-warmed DMEM medium supplemented with 10% characterized fetal bovine serum (Invitrogen, Carlsbad, CA), 100 units/mL penicillin G, and 100 μg/mL streptomycin and allowed to grow overnight at 37° C., 5% CO2, and 95% humidity. The following day, 10 μL of media containing trametinib or DMSO as a control was added to wells. The final concentration of trametinib in wells was 250 nM. A dose response of a test compound (0.6 μL per well) was added. DMSO (0.6 μL) was added to control wells. The plate was briefly shaken to mix wells and then incubated at 37° C. overnight. The next day, the media was aspirated and cells were washed with Dulbecco's Phosphate Buffered Saline (Gibco). Cells were lysed using MPER lysis buffer (Pierce, Rockford, IL) containing Halt Phosphatase and Protease Inhibitors (Pierce, Rockford, IL) and Phosphatase inhibitor cocktail 2 (Sigma, St. Louis, MO) at 4° C. for 10 min with shaking.
(§2) Cellular levels of phospho-Serine 318 ATG13 (pATG13) were measured via an ELISA method. Total ATG13 Antibody (Cell Signaling Cat #13273) was used to coat the wells. The plate was incubated at 4° C. overnight and washed with ELISA wash buffer (Biolegend Cat #421601). The wells were then blocked with assay diluent (Biolegend Cat #421203) for 1 h at rt. Plate wells were washed with ELISA wash buffer. Cell lysate was added to wells and incubated at rt for 2 h. Plate wells were washed with ELISA wash buffer. Biotinylated pS318-ATG13 antibody (Rockland Immunochemicals Cat #600-401-C49) was diluted in assay diluent and added to each well and incubated at rt for 1 h. Plate wells were washed with ELISA wash buffer. Streptavidin linked to horseradish peroxidase (Thermo Fisher Cat #21140) was diluted in assay diluent and added to each well and incubated at rt for 1 h. Plate wells were washed with ELISA wash buffer. High sensitivity TMB substrate (Biolegend Cat #421101) was added to each well and incubated at rt for 20 min. The reaction was stopped with 2N Sulfuric Acid. The plate was analyzed at on a plate reader measuring absorbance at 450 nm and 540 nm (background). Signal was calculated by first subtracting the background absorbance at 540 nm from the absorbance at 450 nm for each well. Next, the background corrected absorbance at 450 nm from blank wells was subtracted from test wells. Data was compared to control wells to determine % ATG13 phosphorylation. GraphPad Prism was used to calculate IC50 values.
On the technique in general: In an ELISA, binding on a coated surface is turned into a signal by an enzyme label.

Test [2] relates to ULK kinase substrate ATG13 (pS318-ATG13) in MiaPaCa-2 cells. Briefly: pATG13 levels of mutant KRas MiaPaCa-2 cells after treatment with ULK inhibitors in combination with trametinib (ELISA). The test is classed as cell-based, human. On the procedure: pATG13 Levels of Mutant KRas MiaPaCa-2 Cells after Treatment with ULK Inhibitors in Combination with Trametinib
as §1, with “MiaPaCa-2” for “A549 (KRAS mutant)”, “pancreatic” for “lung”, “(10000” for “(6,000”, “G,” for “G, and”, “streptomycin, and 2.5% Horse Serum” for “streptomycin”, “minutes” for “min”
as §2, with “2.0N sulfuric acid.” for “2N Sulfuric Acid.”

For the next test, the target named is T2, ULK2 kinase (Homo sapiens, UniProt Q8IYT8).
T2 construct: (residues 1-306 with N-terminal GST and His tag; ID NO: 2); purchased Signal Chem U02-11G
T2 sequence (Q8IYT8 with tags, fused parts or gaps): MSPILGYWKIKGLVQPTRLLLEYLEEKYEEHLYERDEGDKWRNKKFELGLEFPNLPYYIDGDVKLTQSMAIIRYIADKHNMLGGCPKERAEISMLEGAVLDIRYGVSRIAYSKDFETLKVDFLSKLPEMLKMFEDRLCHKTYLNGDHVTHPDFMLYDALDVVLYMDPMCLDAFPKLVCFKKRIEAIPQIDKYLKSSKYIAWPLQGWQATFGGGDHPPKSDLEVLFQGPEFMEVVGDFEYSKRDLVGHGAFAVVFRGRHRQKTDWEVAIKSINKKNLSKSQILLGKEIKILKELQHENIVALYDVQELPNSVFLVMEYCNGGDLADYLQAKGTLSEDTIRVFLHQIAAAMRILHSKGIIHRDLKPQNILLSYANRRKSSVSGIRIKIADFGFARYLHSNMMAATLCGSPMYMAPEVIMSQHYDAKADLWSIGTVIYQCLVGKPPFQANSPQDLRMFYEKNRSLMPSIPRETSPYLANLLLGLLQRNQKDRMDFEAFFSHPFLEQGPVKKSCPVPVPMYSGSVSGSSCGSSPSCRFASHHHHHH
Briefly: Biochemical assay for ULK2 (coupled pyruvate kinase/lactate dehydrogenase assay). The following applies: 1 mM ATP, 1 nM ULK2; read-out: ULK2 (inhibition of biochemical activity), IC50. The procedure:
Biochemical Assay for ULK2 (SEQ. ID NO: 2)
Activity of ULK2 kinase was determined spectroscopically using a coupled pyruvate kinase/lactate dehydrogenase assay that continuously monitors the ATP hydrolysis-dependent oxidation of NADH (e.g., Schindler et al. Science (2000) 289: 1938-1942). Assays were conducted in 384-well plates (100 μL final volume) using 1 nM ULK2 (Signal Chem U02-11G), 200 μM ULKtide, 1.5 units pyruvate kinase, 2.1 units lactate dehydrogenase, 1 mM phosphoenol pyruvate, 0.28 mM NADH and 1 mM ATP in assay buffer (100 mM Tris, pH 7.5, 15 mM MgCl2, 0.5 mM DTT, 0.1% octyl-glucoside, 0.002% (w/v) BSA, and 0.002% Triton X-100). Inhibition of ULK2 was measured by adding serial diluted test compound (final assay concentration of 1% DMSO). A decrease in absorption at 340 nm was monitored continuously for 6 h at 30° C. on a multi-mode microplate reader (BioTek). The reaction rate was calculated using the 2-3 h time frame. The reaction rate at each concentration of compound was converted to percent inhibition using controls (i.e., reaction with no test compound and reaction with a known inhibitor) and IC50 values were calculated by fitting a four-parameter sigmoidal curve to the data using Prism (GraphPad software).

Take `CC/C(Nc1cnn(C2CCN(C(C)C)CC2)c1)=C1/C(=O)Nc2ccc(C(=O)N(C)C)cc21` [Example 2, (Z)-3-(1-((1-(1-isopropylpiperidin-4-yl)-1H-pyrazol-4-yl)amino)propylidene)-N,N-dimethyl-2-oxoindoline-5-carboxamide]: the results for the IC50 (on ULK1 kinase; in test [1]; in test [2]) were 100 to 500 nM, more than 600 nM and 100 to 300 nM, respectively.

With `CC/C(Nc1cnn(C(C)C)c1)=C1/C(=O)Nc2ccc(C(=O)C3CC3)cc21` [Example 6, (Z)-5-(cyclopropanecarbonyl)-3-(1-((1-isopropyl-1H-pyrazol-4-yl)amino)propylidene)indolin-2-one], the IC50 at ULK1 kinase lay within 10 to 100 nM; on ULK2 kinase, 100 to 500 nM; in test [1], 100 to 300 nM.

As to `CC/C(Nc1ccc(N2CCN(C)CC2)cc1)=C1/C(=O)Nc2ccc(C(=O)NCCOC)cc21` [Example 11], the results for the IC50 (on ULK1 kinase; in test [1]; in test [2]) were 10 to 100 nM, 300 to 600 nM and not above 100 nM, respectively.

On to `CCCNC(=O)c1ccc2c(c1)/C(=C(\CC)Nc1cnn(C3CCN(C(C)C)CC3)c1)C(=O)N2` [Example 15], for which the IC50 is not above 10 nM at ULK1 kinase, not above 100 nM in test [1] and not above 100 nM in test [2].

`C/C(Nc1cnn(C2CCN(C(C)C)CC2)c1)=C1/C(=O)Nc2ccc(C(=O)NCC(F)(F)F)cc21` [Example 24]: the IC50 is not above 10 nM on ULK1 kinase, 300 to 600 nM in test [1] and not above 100 nM in test [2].

Take `CC/C(Nc1cnn(C2CCN(C3CCC3)CC2)c1)=C1/C(=O)Nc2ccc(C(=O)NCC(C)C)cc21` [Example 32]: the IC50 on ULK1 kinase is not above 10 nM; in test [1], not above 100 nM; in test [2], not above 100 nM.

With `CC/C(Nc1ccc(N2CCN(C)CC2)c(F)c1)=C1/C(=O)Nc2ccc(C(=O)NCC(F)(F)F)cc21` [Example 72], the half-inhibitory concentration (IC50) at ULK1 kinase was not above 10 nM; at ULK2 kinase it was not above 10 nM; in test [2] it was not above 100 nM.

`CC/C(Nc1ccc(N2CCN(C)CC2)cc1F)=C1/C(=O)Nc2ccc(C(=O)NCC(F)(F)F)cc21` [Example 73]: the IC50 at ULK1 kinase lay in the range of 100 to 500 nM; at ULK2 kinase, 100 to 500 nM; in test [2] it was 100 to 300 nM.

With `CC/C(Nc1cnc(N2CCN(C)CC2)nc1)=C1/C(=O)Nc2ccc(C(=O)NCC(F)(F)F)cc21` [Example 76], the IC50 at ULK1 kinase was 100 to 500 nM; on ULK2 kinase, more than 500 nM; in test [2], 100 to 300 nM.

Regarding `CC/C(Nc1cnn(C(C)C)c1)=C1/C(=O)Nc2ncc(C(=O)NCC3(F)CC3)cc21` [Example 172], the IC50 at ULK1 kinase lay in the range of 10 to 100 nM; on ULK2 kinase, 100 to 500 nM.

In the case of `CC/C(Nc1cnn(C2CCN(C(C)C)CC2)c1)=C1/C(=O)Nc2ccc(C(=O)NCC3(C)CCCO3)cc21` (stereo not drawn) [Example 174], the 50% inhibitory concentration (IC50) is not above 10 nM on ULK1 kinase, 10 to 100 nM at ULK2 kinase and not above 100 nM in test [1].

Consider `CC/C(Nc1cnn(C(C)C)c1)=C1/C(=O)Nc2ccc(C(=O)N(CC(F)(F)F)C3CC3)cc21` [Example 175], for which the figures for the half-maximal inhibitory concentration (IC50) at ULK1 kinase and at ULK2 kinase were not above 10 nM and 100 to 500 nM, respectively.

Consider `CC/C(Nc1cnn(C(C)C)c1)=C1/C(=O)Nc2ccc(C(=O)CN(C)C)cc21` [Example 176], for which the IC50 on ULK1 kinase and at ULK2 kinase was more than 500 nM in each case.

Consider `CC/C(Nc1cnn(C(C)C)c1)=C1/C(=O)Nc2ccc(C(=O)Nc3cnn(CC(F)(F)F)c3)cc21` [Example 178], for which the IC50 on ULK1 kinase and at ULK2 kinase was more than 500 nM in each case.

Regarding `CC/C(Nc1cncc(C(C)C)c1)=C1/C(=O)Nc2ccc(C(=O)NCC(F)(F)F)cc21` [Example 182], the IC50 at ULK1 kinase and at ULK2 kinase was more than 500 nM in each case.

Turning to `CC/C(Nc1cnn(C(C)C)c1)=C1/C(=O)Nc2ccc(C(N)=O)cc21` [Example 183], the IC50 on ULK1 kinase and at ULK2 kinase was 10 to 100 nM throughout.

The IC50 is the midpoint of a concentration-inhibition curve.

The values are drawn from patent publication US20240150368A1, “ULK INHIBITORS AND METHODS OF USE THEREOF” (Deciphera Pharmaceuticals, LLC, priority 2022, published 2024).
